This is an account of results in patent US12570655B2, “Cysteine covalent modifiers of AKT1 and uses thereof” (Terremoto Biosciences, Inc., priority 2023, dated 2026).

Where two headings read alike, the source gives them in different places.

What all share (format): cell-based
For assay [1], the target named is T1, AKT1 E17K (Homo sapiens, UniProt P31749, E17K).
T1 construct: expressed in transfected cells; host or cells: HEK293
In words: Live cell AKT1 E17K target engagement by NanoBRET competitive probe displacement. Particulars: HEK293 cells transfected with kinase-NanoLuciferase fusion, 2 h at 37° C. Here is the method: (§1) Determining Live Cell AKT1 E17K, AKT1 WT, and AKT2 Target Engagement by NanoBRET Competitive Probe Displacement.
(§2) Live cell target engagement assays were performed as described (Vasta, J. D. et al. Cell Chem Biol 2018, 25(11), 206-214). Briefly, HEK293 cells were transfected with plasmids encoding kinase-NanoLuciferase fusion proteins overnight. Cells were then treated with serial dilutions of compound and an ˜EC50 concentration of fluorescently-tagged ATP-competitive tracer (Promega). After incubation for 2 h at 37° C., luciferase substrate and extracellular luciferase inhibitor were added to all wells, and luminescent intensity at 460 nm and 600 nm were measured on a multimode plate-reader. The ratio of E600/E460 was calculated to give the tracer engagement signal (BRET). IC50 values were calculated by fitting BRET values to a log(inhibitor) vs. response Hill equation.
In general terms: In BRET a luciferase serves as donor, and the signal depends on an acceptor being close.

Assay [2] relates to LAPC4 prostate cancer cells. In words: Antiproliferative effects in LAPC4 cells (CellTiter Glo). The conditions noted are these: LAPC4 cells (AKT1 E17K allele), read-out: LAPC4 proliferation IC50. Here is the method:
Antiproliferative Effects in LAPC4 Cells.
LAPC4 prostate cancer cells (Klein, K. A. et al. Nat Med 1997, 3, 402-408), which express the AKT1 E17K allele, were grown in IMDM media (Hyclone) supplemented with 12% FBS+1% P/S. To assess compound effects on growth, 1,000 cells/well were seeded in 384 well assay plates, incubated with compound dilutions dissolved in DMSO. After 72 h, intracellular ATP content was assessed with CellTiter Glo reagent (Promega) according to the manufacturer's instructions. IC50 values were calculated by fitting luminescence values to a log(inhibitor) vs. response Hill equation.

Assay [3] concerns the target T2, AKT1 WT (Homo sapiens, UniProt P31749).
T2 construct: expressed in transfected cells; host or cells: HEK293
In words: Live cell AKT1 WT target engagement by NanoBRET competitive probe displacement. Particulars: HEK293 cells transfected with kinase-NanoLuciferase fusion, 2 h at 37° C. Here is the method:
as §1, §2

T2 sequence (P31749 whole entry): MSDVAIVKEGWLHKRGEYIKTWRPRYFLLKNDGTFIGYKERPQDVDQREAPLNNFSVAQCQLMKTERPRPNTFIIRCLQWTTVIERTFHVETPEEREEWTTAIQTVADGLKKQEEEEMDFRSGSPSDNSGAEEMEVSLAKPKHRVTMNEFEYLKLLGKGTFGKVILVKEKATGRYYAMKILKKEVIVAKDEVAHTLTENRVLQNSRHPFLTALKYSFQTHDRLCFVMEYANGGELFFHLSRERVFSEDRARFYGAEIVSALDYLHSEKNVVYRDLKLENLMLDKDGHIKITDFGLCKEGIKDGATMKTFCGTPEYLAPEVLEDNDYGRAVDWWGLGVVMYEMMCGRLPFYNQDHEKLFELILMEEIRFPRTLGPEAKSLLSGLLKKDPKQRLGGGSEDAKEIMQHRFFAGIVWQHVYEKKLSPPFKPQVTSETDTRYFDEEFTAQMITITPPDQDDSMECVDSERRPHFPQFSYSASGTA
T1 sequence (P31749 whole entry E17K): as the sequence (P31749 whole entry) above, with E17K counted along it

For the compound `C=CC(=O)N1CCC(N[C@H]2CCc3cc(-n4c(-c5cccnc5N)nc5ccc(-n6cccn6)nc54)ccc32)C[C@@H]1C(F)F` (single isomer, unassigned) [Example 213, 1-((2R,4*)-4-(((S)-5-(2-(2-aminopyridin-3-yl)-5-(1H-pyrazol-1-yl)-3H-imidazo[4,5-b]pyridin-3-yl)-2,3-dihydro-1H-inden-1-yl)amino)-2-(difluoromethyl)piperidin-1-yl)prop-2-en-1-one], the IC50 amounted to 4.87 nM in assay [1], 9.69 nM in assay [2] (72 h) and 13.8 nM in assay [3].
Turning to `C=CC(=O)N1CCC(N[C@H]2CCc3cc(-n4c(-c5cccnc5N)nc5ccc(-n6cccn6)nc54)ccc32)C[C@H]1C(F)F` (single isomer, unassigned) [Example 214, 1-((2S,4*)-4-(((S)-5-(2-(2-aminopyridin-3-yl)-5-(1H-pyrazol-1-yl)-3H-imidazo[4,5-b]pyridin-3-yl)-2,3-dihydro-1H-inden-1-yl)amino)-2-(difluoromethyl)piperidin-1-yl)prop-2-en-1-one], the IC50 in assay [1] is 4.72 nM; in assay [2] (Homo sapiens, LAPC4, 72 h), 26.7 nM; in assay [3], 36.5 nM.
In the same order, the values of `C=CC(=O)N1CCC(N[C@H]2CCc3cc(-n4c(-c5cccnc5N)nc5cc(-c6ccccn6)cnc54)ccc32)CC1` [Example 269, 1-(4-{[(1S)-5-[2-(2-aminopyridin-3-yl)-6-(pyridin-2-yl)imidazo[4,5-b]pyridin-3-yl]-2,3-dihydro-1H-inden-1-yl]amino}piperidin-1-yl)prop-2-en-1-one] are 247 nM, 5390 nM and 2120 nM.
As to `C=CC(=O)N1CCN(CC2CCc3cc(-n4c(-c5cccnc5N)nc5ccc(-n6cccn6)nc54)ccc32)C[C@H]1C` (single isomer, unassigned) [Example 292, 1-((R)-4-(((*)-5-(2-(2-aminopyridin-3-yl)-5-(1H-pyrazol-1-yl)-3H-imidazo[4,5-b]pyridin-3-yl)-2,3-dihydro-1H-inden-1-yl)methyl)-2-methylpiperazin-1-yl)prop-2-en-1-one], the IC50 in assay [1] worked out at 6.85 nM; in assay [2] (Homo sapiens, LAPC4, 72 h), 134 nM; in assay [3], 44.9 nM.
With `C=CC(=O)N1CCc2cccc(C(=O)N[C@H]3CCc4cc(-n5c(-c6cccnc6N)nc6ccc(-n7cccn7)nc65)ccc43)c2C1` [Example 235, (S)-2-acryloyl-N-(5-(2-(2-aminopyridin-3-yl)-5-(1H-pyrazol-1-yl)-3H-imidazo[4,5-b]pyridin-3-yl)-2,3-dihydro-1H-inden-1-yl)-1,2,3,4-tetrahydroisoquinoline-8-carboxamide], the IC50 in assay [1] worked out at 12.6 nM; in assay [2] (Homo sapiens, LAPC4, 72 h), 65.8 nM; in assay [3] it was 51.5 nM.
With `C=CC(=O)N1CCC(NC2c3ccc(-n4c(-c5cccnc5N)nc5ccc(-n6ccc(C7CC7)n6)nc54)cc3CC2F)CC1C(F)F` (single isomer, unassigned) [Example 333, 1-((2*,4*)-4-(((1*,2*)-5-(2-(2-aminopyridin-3-yl)-5-(3-cyclopropyl-H-pyrazol-1-yl)-3H-imidazo[4,5-b]pyridin-3-yl)-2-fluoro-2,3-dihydro-1H-inden-1-yl)amino)-2-(difluoromethyl)piperidin-1-yl)prop-2-en-1-one], the IC50 in assay [1] is 4.33 nM; in assay [3], 28.5 nM.
With `C=CC(=O)N1CCC(N[C@H]2CCc3cc(-n4c(-c5cccnc5N)nc5ccc(C6COC6)nc54)ccc32)CC1` [Example 279, 1-(4-{[(1S)-5-[2-(2-aminopyridin-3-yl)-5-(oxetan-3-yl)imidazo[4,5-b]pyridin-3-yl]-2,3-dihydro-1H-inden-1-yl]amino}piperidin-1-yl)prop-2-en-1-one], the IC50 in assay [1] came out at 168 nM; in assay [2] (Homo sapiens, LAPC4, 72 h) it was 1570 nM.
On to `C=CC(=O)N1C[C@@H]2[C@H](C1)[C@H]2NC1CCc2cc(-n3c(-c4cccnc4N)nc4ccc(-n5cccn5)nc43)ccc21` (single isomer, unassigned) [Example 347, 1-((1R,5S,6s)-6-(((*)-5-(2-(2-aminopyridin-3-yl)-5-(1H-pyrazol-1-yl)-3H-imidazo[4,5-b]pyridin-3-yl)-2,3-dihydro-1H-inden-1-yl)amino)-3-azabicyclo[3.1.0]hexan-3-yl)prop-2-en-1-one], for which the IC50 in assay [1] amounted to 234 nM; in assay [3], 2210 nM.
`C=CC(=O)N1CCC(N[C@H]2CCc3cc(-n4c(-c5cccnc5N)nc5ccc(CN6CCOCC6)nc54)ccc32)CC1` [Example 260, 1-(4-{[(1S)-5-[2-(2-aminopyridin-3-yl)-5-(morpholin-4-ylmethyl)imidazo[4,5-b]pyridin-3-yl]-2,3-dihydro-1H-inden-1-yl]amino}piperidin-1-yl)prop-2-en-1-one]: the IC50 is over 1000 nM in assay [1] and over 10000 nM in assay [2] (Homo sapiens, LAPC4, 72 h).
`C=CC(=O)N1CCC(N[C@H]2CCc3cc(-n4c(-c5ccccc5C(F)F)nc5ccc(-n6cccn6)nc54)ccc32)CC1` [Example 285, (S)-1-(4-((5-(2-(2-(difluoromethyl)phenyl)-5-(1H-pyrazol-1-yl)-3H-imidazo[4,5-b]pyridin-3-yl)-2,3-dihydro-1H-inden-1-yl)amino)piperidin-1-yl)prop-2-en-1-one]: the IC50 in assay [1] stood at 604 nM; in assay [2] (Homo sapiens, LAPC4, 72 h), 1550 nM.
In the same order, the values of `C=CC(=O)N1CCCC(c2cn([C@H]3CCc4cc(-n5c(-c6cccnc6N)nc6ccc(-n7cccn7)nc65)ccc43)nn2)C1` (single isomer, unassigned) [Example 167, 1-((*)-3-(1-((S)-5-(2-(2-aminopyridin-3-yl)-5-(1H-pyrazol-1-yl)-3H-imidazo[4,5-b]pyridin-3-yl)-2,3-dihydro-1H-inden-1-yl)-1H-1,2,3-triazol-4-yl)piperidin-1-yl)prop-2-en-1-one] are 37.1 nM and 479 nM.
On to `C=CC(=O)N1CCC(N[C@H]2CCc3cc(-n4c(-c5cccnc5N)nc5ccc(-n6cccn6)nc54)ccc32)CC1CC#N` (single isomer, unassigned) [Example 338, 2-((2*,4*)-1-acryloyl-4-(((S)-5-(2-(2-aminopyridin-3-yl)-5-(1H-pyrazol-1-yl)-3H-imidazo[4,5-b]pyridin-3-yl)-2,3-dihydro-1H-inden-1-yl)amino)piperidin-2-yl)acetonitrile], for which the values for the IC50 in assay [1] and in assay [3] were 12.3 nM and 108 nM, respectively.
As to `C=CC(=O)N1CCC(N[C@H]2CCc3cc(-n4c(-c5cccnc5N)nc5ccc(-c6ccccc6)nc54)ccc32)CC1` [Example 209, (S)-1-(4-((5-(2-(2-aminopyridin-3-yl)-5-phenyl-3H-imidazo[4,5-b]pyridin-3-yl)-2,3-dihydro-1H-inden-1-yl)amino)piperidin-1-yl)prop-2-en-1-one], the IC50 was 2.29 nM in assay [1] and 17 nM in assay [2] (Homo sapiens, LAPC4, 72 h).
Turning to `C=CC(=O)N1C[C@@H]2[C@H](C1)[C@H]2NC1CCc2cc(-n3c(-c4cccnc4N)nc4ccc(-n5cccn5)nc43)ccc21` (single isomer, unassigned) [Example 346, 1-((1R,5S,6s)-6-(((*)-5-(2-(2-aminopyridin-3-yl)-5-(1H-pyrazol-1-yl)-3H-imidazo[4,5-b]pyridin-3-yl)-2,3-dihydro-1H-inden-1-yl)amino)-3-azabicyclo[3.1.0]hexan-3-yl)prop-2-en-1-one], the values for the IC50 in assay [1] and in assay [3] were 444 nM and 2770 nM, respectively.
